Test system: 596521-263-R-J1-PDC complex spheroids, viability % of control
Test: Anticancer human tumor 596521-263-R-J1-PDC patient-derived soft tissue sarcoma cell line growth inhibition [GQUAD]
Conditions: for IC50: curve of first compound; for viability, T/C: stronger effect = lower value; active = viability on the fitted dose curve at most 10% of control; inactive = the rest
Description: DNA G-quadruplex Stabilizer Agents in Combinations in Complex Spheroids
A high-throughput screen of multi-cell type tumor spheroids was designed to identify active combinations of DNA G-quadruplex stabilizer agents and targeted small molecules. Complex spheroids include a stromal component modeled by human endothelial cells (HUVEC) and fibroblasts modeled by human mesenchymal stem cells (MSCs). The concentration ranges selected for each drug and investigational agent were based upon clinically achievable concentrations if the clinical Cmax of the agent was known.
Compounds. The drugs and investigational agents: pidnarulex (CX-5461; NSC782164), APTO-253 (NSC789042), BRACO-19 (NSC847499), peposertib (NSC802822), ceralasertib (NSC780249), elimusertib (NSC800525), camonsertib (NSC841442), AZD-1390 (NSC803789), olaparib (NSC753686), talazoparib (NSC767125), ART-558 (NSC835418), sotorasib (NSC818433), MRTX-1133 (NSC836407), SN-38 (NSC673596), topotecan (NSC609699), etoposide (NSC141540), doxorubicin (NSC123127), gemcitabine (NSC613327), 5-fluorouracil (NSC19893), paclitaxel (NSC125973), vemurafenib (NSC761431), panobinostat (NSC761190), R-306465 (JNJ-16241199; NSC773264), adavosertib (NSC754352), TP-3654 (NSC805149), carboplatin (NSC241240), KSQ-4279 (NSC840948), and staurosporine (NSC755774) were obtained from the National Cancer Institute (NCI) Developmental Therapeutics Program Chemical Repository (34). The FDA-approved anticancer drug set is available from the NCI Developmental Therapeutics Program. […] The stock solutions were prepared in dimethyl sulfoxide (DMSO, Sigma-Aldrich, St. Louis, MO, cat. D2650) at 800-fold the tested concentration and stored at -70 degrees C prior to their use. All drugs and investigational agents were tested over a range starting from a high concentration at or near the clinical Cmax and decreasing in half-log increments. If the clinical Cmax for an agent had not been determined, the highest concentration tested was 10 microM.
2.3 Cell Culture. All cells were maintained in an incubator at 37 degrees C and 5% CO2 with 95% humidity. The PDC lines were cultured according to standard operating procedures established by the NCI PDMR. All PDCs were thawed and cultured in Matrigel-coated flasks prepared with a working solution of 1X Ham's F-12 nutrient mix, without supplementation (Invitrogen, cat. 11765054), 100 U/mL penicillin-streptomycin (Invitrogen, cat. 15140122), and 2.5% Matrigel (Corning Inc., cat. 354248) for the first three passages. The 857933-349-R-J2-PDC line was cultured in 6C/Colon 1B media, which includes advanced DMEM/F-12 (Thermo Fisher Scientific, cat. 12634028), 10 mM HEPES (Thermo Fisher Scientific, cat. 15630080), 1X GlutaMAX supplement (Thermo Fisher Scientific, cat. 35050061), 0.1 mg/mL primocin (InvivoGen, cat. ant-pm-2), 10% defined fetal bovine serum, heat inactivated (HyClone Laboratories Inc., cat. SH30070.03HI), 50% L-WRN conditioned media (ATCC, cat. CRL-3276), 1.25 mM N-Acetyl-L-cysteine (Sigma-Aldrich, cat. A9165), 10 mM nicotinamide (Sigma-Aldrich, cat. N0636), 1X B-27 supplement (Thermo Fisher Scientific, cat. 17504044), 1X N-2 supplement (Thermo Fisher Scientific, cat. 17502048), 10 microM Y-27632 dihydrochloride (Tocris Bioscience, cat. 1254), and 50 ng/mL human EGF recombinant protein (Thermo Fisher Scientific, cat. PHG0311). The 485176-168-R4-J1-PDC line was cultured in Panc media, which includes all 6C/Colon 1B media components plus 100 ng/mL human FGF-10 (Thermo Fisher Scientific, cat. 100-26), 500 nM SB-431542 (Selleckchem, cat. S1067), and gastrin (Tocris, cat. 3006).
[…]

[1] = second compound 0.0316 µM, first compound 0.0316 µM
[2] = second compound 0.0316 µM, first compound 0.1 µM
[3] = second compound 0.0316 µM, first compound 0.316 µM
[4] = second compound 0.0316 µM, first compound 1 µM
[5] = second compound 0.0316 µM, first compound 3.16 µM
[6] = second compound 0.0316 µM, first compound 10 µM
[7] = second compound 0.1 µM, first compound 0.0316 µM
[8] = second compound 0.1 µM, first compound 0.1 µM
[9] = second compound 0.1 µM, first compound 0.316 µM
[10] = second compound 0.1 µM, first compound 1 µM
[11] = second compound 0.1 µM, first compound 3.16 µM
[12] = second compound 0.1 µM, first compound 10 µM
[13] = second compound 0.316 µM, first compound 0.0316 µM
[14] = second compound 0.316 µM, first compound 0.1 µM
[15] = second compound 0.316 µM, first compound 0.316 µM
[16] = second compound 0.316 µM, first compound 1 µM
[17] = second compound 0.316 µM, first compound 3.16 µM
[18] = second compound 0.316 µM, first compound 10 µM
[19] = second compound 1 µM, first compound 0.0316 µM
[20] = second compound 1 µM, first compound 0.1 µM
[21] = second compound 1 µM, first compound 0.316 µM
[22] = second compound 1 µM, first compound 1 µM
[23] = second compound 1 µM, first compound 3.16 µM
[24] = second compound 1 µM, first compound 10 µM
[25] = second compound 3.16 µM, first compound 0.0316 µM
[26] = second compound 3.16 µM, first compound 0.1 µM
[27] = second compound 3.16 µM, first compound 0.316 µM
[28] = second compound 3.16 µM, first compound 1 µM
[29] = second compound 3.16 µM, first compound 3.16 µM
[30] = second compound 3.16 µM, first compound 10 µM
[31] = second compound 10 µM, first compound 0.0316 µM
[32] = second compound 10 µM, first compound 0.1 µM
[33] = second compound 10 µM, first compound 0.316 µM
[34] = second compound 10 µM, first compound 1 µM
[35] = second compound 10 µM, first compound 3.16 µM
[36] = second compound 10 µM, first compound 10 µM
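Also: spheroids exposed to drugs for 7 days before viability reading.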

O=c1[nH]cc(F)c(=O)[nH]1 + Cc1[nH]c2ccc(F)cc2c1-c1nc2c3cccnc3c3ncccc3c2[nH]1
> 10000 nM: IC50 (second compound 0.0316 µM) | IC50 (second compound 0.1 µM) | IC50 (second compound 0.316 µM) | IC50 (second compound 1 µM) | IC50 (second compound 3.16 µM) | IC50 (second compound 10 µM)
inactive: viability, T/C [1] 98.4% | viability, T/C [2] 105% | viability, T/C [3] 100% | viability, T/C [4] 101% | viability, T/C [5] 101% | viability, T/C [6] 98.3% | viability, T/C [7] 100% | viability, T/C [8] 101% | viability, T/C [9] 101% | viability, T/C [10] 105% | viability, T/C [11] 94.9% | viability, T/C [12] 95.1% | viability, T/C [13] 90.8% | viability, T/C [14] 104% | viability, T/C [15] 106% | viability, T/C [16] 113% | viability, T/C [17] 118% | viability, T/C [18] 81.8% | viability, T/C [19] 100% | viability, T/C [20] 96.6% | viability, T/C [21] 100% | viability, T/C [22] 88.9% | viability, T/C [23] 93.9% | viability, T/C [24] 86.6% | viability, T/C [25] 96% | viability, T/C [26] 95.4% | viability, T/C [27] 88.5% | viability, T/C [28] 86.7% | viability, T/C [29] 89.1% | viability, T/C [30] 82.4% | viability, T/C [31] 63.3% | viability, T/C [32] 70.6% | viability, T/C [33] 80.7% | viability, T/C [34] 77.5% | viability, T/C [35] 76.4% | viability, T/C [36] 72.4%

CC1COCCN1c1cc(-c2ccnn2C)c2ccnc(-c3ccn[nH]3)c2n1 (stereo unspecified) + Cc1cnc(CNC(=O)c2c(=O)c3ccc(N4CCCN(C)CC4)nc3n3c2sc2ccccc23)cn1
inactive: viability, T/C [1] 55.9% | viability, T/C [2] 55.6% | viability, T/C [3] 48.3% | viability, T/C [4] 42.5% | viability, T/C [5] 27.4% | viability, T/C [6] 23.2% | viability, T/C [7] 53.1% | viability, T/C [8] 65.6% | viability, T/C [9] 47% | viability, T/C [10] 41.8% | viability, T/C [11] 29.7% | viability, T/C [12] 28.1% | viability, T/C [13] 57.4% | viability, T/C [14] 51.3% | viability, T/C [15] 49% | viability, T/C [16] 41.2% | viability, T/C [17] 33% | viability, T/C [18] 25.1% | viability, T/C [19] 52.2% | viability, T/C [20] 47.8% | viability, T/C [21] 42.9% | viability, T/C [22] 34% | viability, T/C [23] 26.8% | viability, T/C [24] 26.6% | viability, T/C [25] 49.8% | viability, T/C [26] 52.3% | viability, T/C [27] 45.3% | viability, T/C [28] 38% | viability, T/C [29] 29.4% | viability, T/C [30] 21.2% | viability, T/C [31] 39.7% | viability, T/C [32] 35% | viability, T/C [33] 33.3% | viability, T/C [34] 30.4% | viability, T/C [35] 25% | viability, T/C [36] 14.1%
62.4 nM: IC50 (second compound 1 µM)
333 nM: IC50 (second compound 0.0316 µM)
90.9 nM: IC50 (second compound 3.16 µM)
367 nM: IC50 (second compound 0.1 µM)
191 nM: IC50 (second compound 0.316 µM)
< 31.6 nM: IC50 (second compound 10 µM)

O=C(c1cc(Cc2n[nH]c(=O)c3ccccc23)ccc1F)N1CCN(C(=O)C2CC2)CC1 + Cc1cnc(CNC(=O)c2c(=O)c3ccc(N4CCCN(C)CC4)nc3n3c2sc2ccccc23)cn1
> 10000 nM: IC50 (second compound 0.0316 µM) | IC50 (second compound 0.1 µM) | IC50 (second compound 0.316 µM) | IC50 (second compound 1 µM)
inactive: viability, T/C [1] 92% | viability, T/C [2] 91% | viability, T/C [3] 96% | viability, T/C [4] 80.2% | viability, T/C [5] 81.4% | viability, T/C [6] 68.9% | viability, T/C [7] 86.3% | viability, T/C [8] 80.6% | viability, T/C [9] 82.8% | viability, T/C [10] 70.3% | viability, T/C [11] 71.4% | viability, T/C [12] 56.4% | viability, T/C [13] 71.8% | viability, T/C [14] 77.9% | viability, T/C [15] 73.4% | viability, T/C [16] 78.1% | viability, T/C [17] 73.3% | viability, T/C [18] 58.1% | viability, T/C [19] 68.2% | viability, T/C [20] 64.2% | viability, T/C [21] 59.4% | viability, T/C [22] 64.3% | viability, T/C [23] 60.9% | viability, T/C [24] 54.1% | viability, T/C [25] 47.9% | viability, T/C [26] 50.1% | viability, T/C [27] 52.2% | viability, T/C [28] 56.8% | viability, T/C [29] 52.3% | viability, T/C [30] 48.8% | viability, T/C [31] 46.1% | viability, T/C [32] 48.4% | viability, T/C [33] 47.4% | viability, T/C [34] 46.6% | viability, T/C [35] 50.9% | viability, T/C [36] 41.8%
< 31.6 nM: IC50 (second compound 3.16 µM) | IC50 (second compound 10 µM)

Source: PubChem BioAssay AID2060500 (Molecular Pharmacology Branch, DTP, NCI, 2025)
